Results taken from patent EP1120414A1, “DISUBSTITUTED MALEIMIDE COMPOUNDS AND MEDICINAL UTILIZATION THEREOF” (Japan Tobacco Inc., priority 1998, dated 2000).
Structures can show the parent of a compound that is named as a salt. Where two headings read alike, the source gives them in different places.

Columns and labels:
PKC β II = biological target: T1, PKC β II (Homo sapiens, UniProt P05771); assay: PKC enzyme assay (BIOTRAK Protein kinase C enzyme assay system, 32P-ATP phosphorylation of peptide […]); type: biochemical; details: for Ratio α/β: IC50 PKC α / IC50 PKC β II
T1 construct: purchased CALBIOCHEM
Text: The method for determining the PKC inhibitory activity of the compound of the present invention is explained in the following. Inasmuch as PKCβII is present in greater number in intravascular cells than PKCβI, PKCβII was mainly used here to test the enzyme activity.
(§1) As the reagent for enzyme assay, BIOTRAK Protein kinase C enzyme assay system (hereinafter the system, Amersham), and as the PKC enzyme standard product, Protein Kinase C, Human Recombinant (CALBIOCHEM) were purchased and used in the assay. A substrate mixture was prepared by mixing calcium buffer (12 mM calcium acetate, 50 mM Tris/HCl pH 7.5, 0.05% (w/v) sodium azide), Lipid (0.3 mg/ml La-phosphatidyl-L-serine, […] phorbol 12-myristate 13-acetate, 50 mM Tris/HCl pH 7.5, 0.05% (w/v) sodium azide), peptide buffer (900 µM peptide […]), 50 mM Tris/HCl pH 7.5, 0.05% (w/v) sodium azide), DTT buffer (30 mM dithiothreitol, 50 mM Tris/HCl pH 7.5, 0.05% (w/v) sodium azide), and magnesium ATP buffer (1.2 mM ATP, […] pH 7.4, 72 mM magnesium chloride) all attached to the system in a ratio of 1:1:1:1:0.8 and adding [ y -32P]ATP (Amersham, cat. […] The PKC enzyme standard product was diluted with an assay buffer (10 mM Hepes pH 7.4, 0.01% Triton X-100) to a concentration of 400 ng/ml and used as the enzyme solution. The substrate mixture and a test substance (diluted to the final concentration of 1 nM-10 µM with dimethyl sulfoxide (DMSO)) were mixed at a ratio of 20:1. The enzyme solution was added in the amount equivalent to the substrate mixture and mixed, which was followed by incubation at 37°C for 15 minutes. The reaction terminator (300 mM orthophosphoric acid containing carmosine red) attached to the system was added in the amount equivalent to the substrate mixture to end the reaction, and the reaction mixture was spotted on a phosphocellulose paper (Whatman, P-81), washed twice with 75 mM orthophosphoric acid and assayed for radioactivity by BAS2000 (Fuji film).
(§2) The ratio of the radioactivity of the addition of the test substance to the addition of DMSO was determined, and IC50 was calculated from inhibition at each concentration.

PKC α = biological target: T2, PKC α (Homo sapiens, UniProt P17252); assay: as above; type: biochemical
T2 construct: purchased CALBIOCHEM
Method: as §1, §2

[1] = Protein Kinase C, Human Recombinant, test substance 1 nM-10 µM, 37°C, 15 minutes, read-out: Inhibition of PKC activity IC50 PKC β II
[2] = Protein Kinase C, Human Recombinant, test substance 1 nM-10 µM, 37°C, 15 minutes, read-out: Inhibition of PKC activity IC50 PKC α
[3] = read-out: Inhibition of PKC activity IC50 PKC β II, Protein Kinase C, Human Recombinant, test substance 1 nM-10 µM, 37°C, 15 minutes
[4] = read-out: Inhibition of PKC activity IC50 PKC α, Protein Kinase C, Human Recombinant, test substance 1 nM-10 µM, 37°C, 15 minutes

T1 sequence (P05771 other isoform, or with tags, fused parts or gaps): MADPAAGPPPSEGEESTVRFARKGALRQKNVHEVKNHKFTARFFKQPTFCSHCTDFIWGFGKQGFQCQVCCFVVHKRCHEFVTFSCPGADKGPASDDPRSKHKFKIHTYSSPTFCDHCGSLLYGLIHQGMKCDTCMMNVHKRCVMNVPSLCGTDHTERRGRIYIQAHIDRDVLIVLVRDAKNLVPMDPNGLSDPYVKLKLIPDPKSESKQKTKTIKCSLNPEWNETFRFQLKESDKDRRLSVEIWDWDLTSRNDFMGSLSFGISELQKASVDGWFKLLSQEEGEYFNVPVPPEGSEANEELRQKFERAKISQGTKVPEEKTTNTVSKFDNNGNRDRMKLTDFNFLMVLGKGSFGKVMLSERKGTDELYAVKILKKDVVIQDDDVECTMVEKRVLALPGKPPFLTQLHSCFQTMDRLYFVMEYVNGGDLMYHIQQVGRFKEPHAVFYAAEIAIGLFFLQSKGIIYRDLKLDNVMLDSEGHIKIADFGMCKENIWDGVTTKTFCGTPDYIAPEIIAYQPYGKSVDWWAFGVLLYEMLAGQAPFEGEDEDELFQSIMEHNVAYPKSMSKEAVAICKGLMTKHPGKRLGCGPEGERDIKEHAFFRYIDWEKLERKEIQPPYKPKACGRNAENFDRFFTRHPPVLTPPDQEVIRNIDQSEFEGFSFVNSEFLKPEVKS

Ratio α/β (PKC β II)	IC50 (PKC β II; [1])	IC50 (PKC α; [2])	IC50 (PKC β II)	IC50 (PKC α)	IC50 (PKC β II; [3])	IC50 (PKC α; [4])	SMILES
17	60 nM	> 1000 nM	–	–	–	–	O=C1NC(=O)C(c2cn(CCCn3cccn3)c3ccccc23)=C1Nc1ccccc1 [Example 2-37, 3-(phenylamino)-4-[1-(3-pyrazol-1-ylpropyl)-1H-indol-3-yl]-1H-pyrrole-2,5-dione]
47	18 nM	842 nM	–	–	–	–	Cc1cn(CCCn2cc(C3=C(Nc4cccc(Cl)c4)C(=O)NC3=O)c3ccccc32)cn1 [Example 2-58, 3-[(3-chlorophenyl)amino]-4-[1-{3-(4-methyl-imidazol-1-yl)propyl}-1H-indol-3-yl]-1H-pyrrole-2,5-dione]
102	98 nM	> 10000 nM	–	–	–	–	Cc1c(C2=C(Nc3ccccc3)C(=O)NC2=O)c2ccccc2n1CCCN1CCCCC1 [Example 2-53, 3-[2-methyl-1-(3-piperidinopropyl)-1H-indol-3-yl]-4-(phenylamino)-1H-pyrrole-2,5-dione]
19	16 nM	298 nM	–	–	–	–	O=C1NC(=O)C(c2cn(CC3CCNCC3)c3ccccc23)=C1Nc1ccccc1 [Example 3-2, 3-(phenylamino)-4-[1-(4-piperidylmethyl)-1H-indol-3-yl]-1H-pyrrole-2,5-dione]
79	80 nM	6290 nM	–	–	–	–	CN(C)CCN(C)CCn1cc(C2=C(Nc3ccccc3)C(=O)NC2=O)c2ccccc21 [Example 2-16, 3-[1-{2-[N-(2-dimethylaminoethyl)-N-methylamino]ethyl}-1H-indol-3-yl]-4-(phenylamino)-1H-pyrrole-2,5-dione]
57	15 nM	851 nM	–	–	–	–	CN(C)C1CCN(CCCn2cc(C3=C(Nc4ccccc4)C(=O)NC3=O)c3ccccc32)CC1 [Example 2-34, 3-[1-{3-(4-dimethylaminopiperidino)propyl}-1H-indol-3-yl]-4-(phenylamino)-1H-pyrrole-2,5-dione]
27	18 nM	484 nM	–	–	–	–	O=C1NC(=O)C(c2cn(CC3CCCNC3)c3ccccc23)=C1Nc1ccccc1 (stereo not drawn) [Example 3-1, 3-(phenylamino)-4-[1-(3-piperidylmethyl)-1H-indol-3-yl]-1H-pyrrole-2,5-dione]
101	–	–	7 nM	708 nM	–	–	CCN(C)CC1CCc2c(C3=C(Nc4ccccc4)C(=O)NC3=O)c3ccccc3n2C1 (stereo not drawn) [Example 4-51]
56	29 nM	1630 nM	–	–	–	–	O=C1NC(=O)C(c2cn(CC3CCN(CC(O)CO)CC3)c3ccccc23)=C1Nc1ccccc1 (stereo not drawn) [Example 3-5, 3-[1-{[1-(2,3-dihydroxypropyl)piperidin-4-yl]methyl}-1H-indol-3-yl]-4-(phenylamino)-1H-pyrrole-2,5-dione]
25	40 nM	> 1000 nM	–	–	–	–	O=C1NC(=O)C(c2cn(CCCn3cncn3)c3ccccc23)=C1Nc1ccccc1 [Example 2-38, 3-(phenylamino)-4-[1-{3-(1,2,4-triazol-1-yl)propyl}-1H-indol-3-yl]-1H-pyrrole-2,5-dione]
104	96 nM	> 10000 nM	–	–	–	–	Cc1c(C2=C(Nc3ccccc3)C(=O)NC2=O)c2ccccc2n1CCCN1CCCC1 [Example 2-55, 3-[2-methyl-1-(3-pyrrolidin-1-ylpropyl)-1H-indol-3-yl]-4-(phenylamino)-1H-pyrrole-2,5-dione]
76	–	–	–	–	6 nM	455 nM	CN(C)C[C@H]1Cc2c(C3=C(Nc4ccc(F)cc4)C(=O)NC3=O)c3ccccc3n2C1 [Example 4-69]
45	103 nM	4630 nM	–	–	–	–	CCN(CCCn1cc(C2=C(Nc3ccccc3)C(=O)NC2=O)c2ccccc21)Cc1ccccc1 [Example 2-17, 3-[1-{3-(N-benzyl-N-ethylamino)propyl}-1H-indol-3-yl)-4-(phenylamino)-1H-pyrrole-2,5-dione]
109	–	–	–	–	46 nM	4990 nM	O=C1NC(=O)C(c2c3n(c4ccccc24)C[C@H](CN2CCOCC2)C3)=C1Nc1ccccc1 [Example 4-59]
64	–	–	–	–	13 nM	831 nM	O=C1NC(=O)C(c2c3n(c4ccccc24)CC(CN2CCC(O)CC2)C3)=C1Nc1ccccc1 (stereo not drawn) [Example 4-27]
61	30 nM	1830 nM	–	–	–	–	O=C1NC(=O)C(c2cn(CCCCO)c3ccccc23)=C1Nc1ccccc1 [Example 2-5, 3-[1-(4-hydroxybutyl)-1H-indol-3-yl]-4-(phenylamino)-1H-pyrrole-2,5-dione]
72	17 nM	1230 nM	–	–	–	–	O=C1NC(=O)C(c2cn(CCCN3CCOCC3)c3ccccc23)=C1Nc1ccccc1 [Example 2-19, 3-[1-(3-morpholinopropyl)-1H-indol-3-yl]-4-(phenylamino)-1H-pyrrole-2,5-dione]
74	–	–	–	–	34 nM	2530 nM	CCN(C)C[C@@H]1CCc2c(C3=C(Nc4cccc(SC)c4)C(=O)NC3=O)c3ccccc3n2C1 [Example 4-48]
–	17 nM	726 nM	–	–	–	–	O=C1NC(=O)C(c2cn(CCCN3CCCCC3)c3ccccc23)=C1Nc1ccccc1 [Example 2-20, 3-[1-(3-piperidinopropyl)-1H-indol-3-yl]-4-(phenylamino)-1H-pyrrole-2,5-dione]
68	10 nM	676 nM	–	–	–	–	NC(=O)C1CCN(CCCn2cc(C3=C(Nc4ccccc4)C(=O)NC3=O)c3ccccc32)CC1 [Example 2-33, 3-[1-{3-(4-carbamoylpiperidino)propyl}-1H-indol-3-yl]-4-(phenylamino)-1H-pyrrole-2,5-dione]
43	25 nM	1080 nM	–	–	–	–	O=C1NC(=O)C(c2cn(CCCCCN3CCC(O)CC3)c3ccccc23)=C1Nc1ccccc1 [Example 2-28, 3-[1-{5-(4-hydroxypiperidino)pentyl}-1H-indol-3-yl]-4-(phenylamino)-1H-pyrrole-2,5-dione]
77	35 nM	2680 nM	–	–	–	–	CCN(CCCn1cc(C2=C(Nc3ccccc3)C(=O)NC2=O)c2ccccc21)CCOC [Example 2-15, 3-[1-{3-[N-ethyl-N-(2-methoxyethyl)amino]propyl}-1H-indol-3-yl]-4-(phenylamino)-1H-pyrrole-2,5-dione]
29	18 nM	518 nM	–	–	–	–	CN1CCC(Cn2cc(C3=C(Nc4ccccc4)C(=O)NC3=O)c3ccccc32)CC1 [Example 3-4, 3-[1-{(1-methylpiperidin-4-yl)methyl}-1H-indol-3-yl]-4-(phenylamino)-1H-pyrrole-2,5-dione]
35	198 nM	6910 nM	–	–	–	–	O=C1NC(=O)C(c2c[nH]c3ccccc23)=C1Nc1cccc(Cl)c1 [Example 1-6, 3-[(3-chlorophenyl)amino]-4-(1H-indol-3-yl)-1H-pyrrole-2,5-dione]
–	–	–	8 nM	723 nM	–	–	O=C1NC(=O)C(c2cn(CCCN3CCC(N4CCCC4)CC3)c3ccccc23)=C1Nc1ccccc1 [Example 2-49, 3-[1-(3-(4-pyrrolidinylpiperidino)propyl}-1H-indol-3-yl]-4-(phenylamino)-1H-pyrrole-2,5-dione]
60	–	–	–	–	4 nM	228 nM	CNCC1Cc2c(C3=C(Nc4ccc(F)cc4)C(=O)NC3=O)c3ccccc3n2C1 (stereo not drawn) [Example 4-32]
37	226 nM	8340 nM	–	–	–	–	O=C1NC(=O)C(c2c[nH]c3ccccc23)=C1Nc1cccc(Br)c1 [Example 1-10, 3-[(3-bromophenyl)amino]-4-(1H-indol-3-yl)-1H-pyrrole-2,5-dione]
–	2 nM	27 nM	–	–	–	–	N=C(N)SCCCn1cc(C2=C(Nc3ccccc3)C(=O)NC2=O)c2ccccc21 [Example 2-43, 3-[1-(3-amidinothiopropyl)-1H-indol-3-yl]-4-(phenylamino)-1H-pyrrole-2,5-dione hydrobromide]

SMILES	Ratio α/β (PKC β II)	IC50 (PKC β II; [1])	IC50 (PKC α; [2])	IC50 (PKC β II)	IC50 (PKC α)	IC50 (PKC β II; [3])	IC50 (PKC α; [4])
O=C1NC(=O)C(c2c3n(c4ccccc24)C[C@H](CO)C3)=C1Nc1ccccc1 [Example 4-58]	73	14 nM	–	–	–	–	1020 nM
